Structures can show the parent of a compound that is named as a salt.
Columns and labels:
SARS-CoV-2 3CL^pro [1] = molecular target: T1, SARS-CoV-2 3CL^pro (Severe acute respiratory syndrome coronavirus 2, UniProt P0DTD1); conditions: incubation 5-40 min at 37 °C; kobs = (k inact·[I])/(K I + [I])
SARS-CoV-2 3CL^pro [2] = molecular target: T1, SARS-CoV-2 3CL^pro; test: Intact protein molecular weight analysis by mass spectrometry; format: binding; conditions: 8.4 μM protease, 90 μM compound, 30 min at 37 °C
SARS-CoV-2 3CL^pro [3] = molecular target: T1, SARS-CoV-2 3CL^pro; test: Enzymatic inhibition assay of SARS-CoV-2 3CLpro by FRET; format: biochemical; conditions: for inhibitory activity against SARS-CoV-2 3CL^pro (in words): concentrations 0, 1, 10, 100 μM
SARS-CoV-2 3CL^pro [4] = molecular target: T1, SARS-CoV-2 3CL^pro; test: biochemical; conditions: IC50 against SARS-CoV-2 3CL^pro, incubation 3 min

SMILES | IC50 (SARS-CoV-2 3CL^pro [3]) | inhibitory activity against SARS-CoV-2 3CL^pro (in words) (SARS-CoV-2 3CL^pro [3]) | also measured
CC1=CC(=O)c2ccccc2C1=O [Entry 1, 2-Methyl-1,4-naphthoquinone (vitamin K3), reference compound] | – | – | K I (inhibition constant) (SARS-CoV-2 3CL^pro [1]): 112200 nM; proteins bound with one compound (SARS-CoV-2 3CL^pro [2]): 55%; proteins bound with two compounds (SARS-CoV-2 3CL^pro [2]): about 15%; proteins covalently bound (total) (SARS-CoV-2 3CL^pro [2]): about 70%
O=C1C=CC(=O)c2ccccc21 [Entry 2, 1,4-Naphthoquinone] | 690 ± 130 nM | – | –
O=C1C=C(Cl)C(=O)c2ccccc21 [Entry 3, 2-Chloro-1,4-naphthoquinone] | 1920 ± 490 nM | – | –
O=C1C=C(O)C(=O)c2ccccc21 [Entry 4, 2-Hydroxy-1,4-naphthoquinone] | > 100000 nM | almost lose their inhibitory activities | –
NC1=C(Cl)C(=O)c2ccccc2C1=O [Entry 5, 2-Amino-3-chloro-1,4-naphthoquinone] | > 100000 nM | almost lose their inhibitory activities | –
O=C1C=CC(=O)c2c(O)cccc21 [Entry 6, 5-Hydroxy-1,4-naphthoquinone] | 4110 ± 240 nM | – | –
O=C1C=CC(=O)c2c(O)ccc(O)c21 [Entry 7, 5,8-Dihydroxy-1,4-naphthoquinone] | 490 ± 110 nM | – | K I (inhibition constant) (SARS-CoV-2 3CL^pro [1]): 3050 nM; times higher inhibitory activity than Vitamin K3 (SARS-CoV-2 3CL^pro [3]; ratio of IC50 values against SARS-CoV-2 3CL^pro): 9.8 times; proteins bound with one compound (SARS-CoV-2 3CL^pro [2]): 80%; proteins bound with two compounds (SARS-CoV-2 3CL^pro [2]): about 10%; proteins covalently bound (total) (SARS-CoV-2 3CL^pro [2]): about 90%; IC50 (SARS-CoV-2 3CL^pro [4]): 790 nM
CC1=CC(=O)c2c(O)cccc2C1=O [Entry 8, 2-Methyl-5-hydroxy-1,4-naphthoquinone] | 1320 ± 330 nM | – | –
O=NN(CCCl)C(=O)NC1CCCCC1 [Lomustine, reference compound] | 5860 nM | – | –
N=C(N)c1ccc2cc(OC(=O)c3ccc(N=C(N)N)cc3)ccc2c1 [Nafamostat Mesylate, reference compound] | – | – | remaining activity at 100 µM (SARS-CoV-2 3CL^pro [3]; read-out: residual activity of the protease): ~60%
CC1=C(C/C=C(\C)CCC[C@H](C)CCC[C@H](C)CCCC(C)C)C(=O)c2ccccc2C1=O [Vitamin K1, reference compound] | – | no inhibition at the high and middle concentration | –
CC(=O)Oc1cc(C)c(OC(C)=O)c2ccccc12 [Vitamin K4, reference compound] | – | lost its inhibitory activity | –
COc1cc(C(=O)NS(=O)(=O)c2ccccc2C)ccc1Cc1cn(C)c2ccc(NC(=O)OC3CCCC3)cc12 [Zafirlukast, reference compound] | 46700 nM | – | –
